Test results reported in patent publication US7964531B2, “3-phenoxy-4-pyridazinol derivatives and herbicidal composition containing the same” (Mitsui Chemicals Agro, Inc., priority 2001, dated 2011).

With `COc1ccc(Br)c(Oc2nnc(Cl)cc2O)c1C` [Compound No. 1066, 3-(6-Bromo-3-methoxy-2-methylphenoxy)-6-chloro-4-pyridazinol] the melting point was 246 to 253 °C.
In the case of `COc1ccc(C2CC2)c(Oc2nnc(Cl)cc2O)c1C` [Compound No. 1069, 6-Chloro-3-(6-cyclopropyl-3-methoxy-2-methylphenoxy)-4-pyridazinol], the melting point was 250 to 253 °C.
For `Cc1ccc(C)c(C2CC2)c1Oc1nnc(Cl)cc1O` [Compound No. 1073, 6-Chloro-3-(2-cyclopropyl-3,6-dimethylphenoxy)-4-pyridazinol], the melting point was 171 to 175 °C.
For `C=CCc1c(OC)ccc(CC)c1Oc1nnc(Cl)cc1O` [Compound No. 1080, 3-(2-Allyl-6-ethyl-3-methoxyphenoxy)-6-chloro-4-pyridazinol], the melting point was 183 to 186 °C.
In the case of `Cc1ccc2c(c1Oc1nnc(Cl)cc1O)CCC2` [Compound No. 1088, 6-Chloro-3-[(5-methyl-2,3-dihydro-1H-inden-4-yl)oxy]-4-pyridazinol], the melting point was 222 to 225 °C.
With `CCc1ccc2c(c1Oc1nnc(Cl)cc1O)CCC2` [Compound No. 1089, 6-Chloro-3-[(5-ethyl-2,3-dihydro-1H-inden-4-yl)oxy]-4-pyridazinol] the melting point was 193 to 196 °C.
`Oc1cc(Cl)nnc1Oc1c(C2CC2)ccc2c1CCC2` [Compound No. 1091, 6-Chloro-3-[(5-cyclopropyl-2,3-dihydro-1H-inden-4-yl)oxy]-4-pyridazinol] gave a melting point of 218 to 220 °C.
Work on `Cc1ccc2c(c1Oc1nnc(Cl)cc1O)OCC2` [Compound No. 1096, 6-Chloro-3-[(6-methyl-2,3-dihydro-1-benzofuran-7-yl)oxy]-4-pyridazinol] yielded a melting point of 217 to 219 °C.
`Oc1cc(Cl)nnc1Oc1c(C2CC2)ccc2ccoc12` [Compound No. 1102, 6-Chloro-3-[(6-cyclopropyl-1-benzofuran-7-yl)oxy]-4-pyridazinol] gave a melting point of 175 to 180 °C.
In the case of `Cc1ccc2occc2c1Oc1nnc(Cl)cc1O` [Compound No. 1109, 6-Chloro-3-[(5-methyl-1-benzofuran-4-yl)oxy]-4-pyridazinol], the melting point was 222 to 225 °C.
`Cc1cc(Br)c(C)c(Br)c1Oc1nnc(Cl)cc1O` [Compound No. 1118, 6-Chloro-3-(2,4-dibromo-3,6-dimethylphenoxy)-4-pyridazinol] showed a melting point of 241 to 248 °C.
For `Cc1cc(C)c(Oc2nnc(Cl)cc2O)c(Br)c1` [Compound No. 1119, 3-(2-Bromo-4,6-dimethylphenoxy)-6-chloro-4-pyridazinol], the melting point was 254 to 256 °C.
For `CCc1cc(I)cc(I)c1Oc1nnc(Cl)cc1O` [Compound No. 1120, 6-Chloro-3-(2-ethyl-4,6-diiodophenoxy)-4-pyridazinol], the melting point was 142 to 144 °C.
With `Cc1cc(C)c(Oc2nnc(Cl)cc2O)c(C)c1` [Compound No. 1122, 6-Chloro-3-(2,4,6-trimethylphenoxy)-4-pyridazinol] the melting point was 235 to 239 °C.
For `Cc1cc(C)c(Oc2nnc(Cl)cc2O)c(C2CC2)c1` [Compound No. 1123, 6-Chloro-3-(2-cyclopropyl-4,6-dimethylphenoxy)-4-pyridazinol], the melting point was 215 to 217 °C.
Work on `Cc1cc(C)c(Br)c(Oc2nnc(Cl)cc2O)c1C` [Compound No. 1124, 3-(2-Bromo-3,5,6-trimethylphenoxy)-6-chloro-4-pyridazinol] yielded a melting point of 280 to 290 °C.
Work on `Cc1cc(C)c(C)c(Oc2nnc(Cl)cc2O)c1C` [Compound No. 1125, 6-Chloro-3-(2,3,5,6-tetramethylphenoxy)-4-pyridazinol] yielded a melting point of 278 to 283 °C.
In the case of `Cc1cc(C)c(C2CC2)c(Oc2nnc(Cl)cc2O)c1C` [Compound No. 1126, 6-Chloro-3-(2-cyclopropyl-3,5,6-trimethylphenoxy)-4-pyridazinol], the melting point was 212 to 219 °C.
For `COc1c(C)cc(C)c(C)c1Oc1nnc(Cl)cc1O` [Compound No. 1128, 6-Chloro-3-(2-methoxy-3,5,6-trimethylphenoxy)-4-pyridazinol], the melting point was 209 to 210 °C.
`Cc1cc2c(c(Oc3nnc(Cl)cc3O)c1C)CCC2` [Compound No. 1129, 6-Chloro-3-[(5,6-dimethyl-2,3-dihydro-1H-inden-4-yl)oxy]-4-pyridazinol] gave a melting point of 210 to 213 °C.
With `CC(=O)Oc1cc(Cl)nnc1Oc1c(C)cccc1C1CC1` [Compound No. 1151, 6-Chloro-3-(2-cyclopropyl-6-methylphenoxy)-4-pyridazinyl acetate] the melting point was 98 to 101 °C.
With `CCC(=O)Oc1cc(Cl)nnc1Oc1c(C)cccc1C1CC1` [Compound No. 1160, 6-Chloro-3-(2-cyclopropyl-6-methylphenoxy)-4-pyridazinyl propionate] the melting point was 75 to 77 °C.
In the case of `Cc1cccc(C2CC2)c1Oc1nnc(Cl)cc1OC(=O)C(C)C` [Compound No. 1172, 6-Chloro-3-(2-cyclopropyl-6-methylphenoxy)-4-pyridazinyl 2-methylpropanoate], the melting point was 38 to 39 °C.
Compound `Cc1cccc(C2CC2)c1Oc1nnc(Cl)cc1OC(=O)CC(C)C` [Compound No. 1184, 6-Chloro-3-(2-cyclopropyl-6-methylphenoxy)-4-pyridazinyl 3-methylbutanoate] has a melting point of 71 to 74 °C.
`Cc1cccc(C2CC2)c1Oc1nnc(Cl)cc1OC(=O)C(C)(C)C` [Compound No. 1207, 6-Chloro-3-(2-cyclopropyl-6-methylphenoxy)-4-pyridazinyl pivalate] showed a melting point of 84 to 87 °C.
With `CCCCCCCCCCCCCCC(=O)Oc1cc(Cl)nnc1Oc1c(C)cccc1C1CC1` [Compound No. 1260, 6-Chloro-3-(2-cyclopropyl-6-methylphenoxy)-4-pyridazinyl pentadecanoate] the melting point was 35 to 37 °C.
`O=C(Oc1cc(Cl)nnc1Oc1ccccc1C1CC1)C1CC1` [Compound No. 1266, 6-Chloro-3-(2-cyclopropylphenoxy)-4-pyridazinyl cyclopropanecarboxylate] showed a melting point of 122 to 125 °C.
In the case of `Cc1ccccc1Oc1nnc(Cl)cc1OC(=O)c1ccccc1C` [Compound No. 1446, 6-Chloro-3-(2-methylphenoxy)-4-pyridazinyl 2-methylbenzoate], the melting point was 91 to 93 °C.
`Cc1ccccc1C(=O)Oc1cc(Cl)nnc1Oc1ccccc1C1CCCCC1` [Compound No. 1455, 6-Chloro-3-(2-cyclohexylphenoxy)-4-pyridazinyl 2-methylbenzoate] showed a melting point of 89 to 91 °C.
For `Cc1ccccc1C(=O)Oc1cc(Cl)nnc1Oc1cccc(C(C)(C)C)c1` [Compound No. 1457, 3-(3-tert-Butylphenoxy)-6-chloro-4-pyridazinyl 2-methylbenzoate], the melting point was 63 to 64 °C.
`COc1cccc(Oc2nnc(Cl)cc2OC(=O)c2ccccc2C)c1` [Compound No. 1458, 6-Chloro-3-(3-methoxyphenoxy)-4-pyridazinyl 2-methylbenzoate] gave a melting point of 66 to 67 °C.
`Cc1ccc(C(C)C)c(Oc2nnc(Cl)cc2OC(=O)c2ccccc2C)c1` [Compound No. 1459, 6-Chloro-3-(2-isopropyl-5-methylphenoxy)-4-pyridazinyl 2-methylbenzoate] gave a melting point of 95 to 97 °C.
Work on `Cc1ccccc1C(=O)Oc1cc(Cl)nnc1Oc1cccc2ccccc12` [Compound No. 1461, 6-Chloro-3-(1-naphthyloxy)-4-pyridazinyl 2-methylbenzoate] yielded a melting point of 133 to 134 °C.
Compound `COc1ccccc1C(=O)Oc1cc(Cl)nnc1Oc1ccccc1C` [Compound No. 1509, 6-Chloro-3-(2-methylphenoxy)-4-pyridazinyl 2-methoxybenzoate] has a melting point of 114 to 116 °C.
`Cc1ccc(C(=O)Oc2cc(Cl)nnc2Oc2ccccc2C)cc1` [Compound No. 1553, 6-Chloro-3-(2-methylphenoxy)-4-pyridazinyl 4-methylbenzoate] gave a melting point of 105 to 108 °C.
For `Cc1ccc(C(=O)Oc2cc(Cl)nnc2Oc2c(C)cccc2C2CC2)cc1` [Compound No. 1566, 6-Chloro-3-(2-cyclopropyl-6-methylphenoxy)-4-pyridazinyl 4-methylbenzoate], the melting point was 77.5 to 78 °C.
`Cc1cccc(C2CC2)c1Oc1nnc(Cl)cc1OC(=O)c1ccc(C(C)(C)C)cc1` [Compound No. 1575, 6-Chloro-3-(2-cyclopropyl-6-methylphenoxy)-4-pyridazinyl 4-tert-butylbenzoate] gave a melting point of 139 to 142 °C.
Compound `Cc1ccccc1Oc1nnc(Cl)cc1OC(=O)c1ccc(Cl)cc1Cl` [Compound No. 1603, 6-Chloro-3-(2-methylphenoxy)-4-pyridazinyl 2,4-dichlorobenzoate] has a melting point of 81 to 82.5 °C.
Compound `CCOC(=O)Oc1cc(Cl)nnc1Oc1ccccc1C` [Compound No. 1706, 6-Chloro-3-(2-methylphenoxy)-4-pyridazinyl ethyl carbonate] has a melting point of 73 to 74 °C.
In the case of `Cc1ccccc1Oc1nnc(Cl)cc1OC(=O)OCC(C)C` [Compound No. 1757, 6-Chloro-3-(2-methylphenoxy)-4-pyridazinyl isobutyl carbonate], the melting point was 46 to 47 °C.
Compound `Cc1cccc(C2CC2)c1Oc1nnc(Cl)cc1OC(=O)OCC(C)C` [Compound No. 1770, 6-Chloro-3-(2-cyclopropyl-6-methylphenoxy)-4-pyridazinyl isobutyl carbonate] has a melting point of 72 to 74 °C.
`Cc1ccccc1Oc1nnc(Cl)cc1OC(=O)N1CCCC1` [Compound No. 1924, 6-Chloro-3-(2-methylphenoxy)-4-pyridazinyl 1-pyrrolidinecarboxylate] showed a melting point of 126 to 127 °C.
In the case of `Cc1cccc(C2CC2)c1Oc1nnc(Cl)cc1OC(=O)N1CCCC1` [Compound No. 1937, 6-Chloro-3-(2-cyclopropyl-6-methylphenoxy)-4-pyridazinyl 1-pyrrolidinecarboxylate], the melting point was 115 to 118 °C.
With `CS(=O)(=O)Oc1cc(Cl)nnc1Oc1ccccc1C1CC1` [Compound No. 1985, 6-Chloro-3-(2-cyclopropylphenoxy)-4-pyridazinyl methanesulfonate] the melting point was 162 to 172 °C.
With `CCS(=O)(=O)Oc1cc(Cl)nnc1Oc1c(C)cccc1C1CC1` [Compound No. 2034, 6-Chloro-3-(2-cyclopropyl-6-methylphenoxy)-4-pyridazinyl ethanesulfonate] the melting point was 96 to 97 °C.
In the case of `CCCS(=O)(=O)Oc1cc(Cl)nnc1Oc1ccccc1C` [Compound No. 2038, 6-Chloro-3-(2-methylphenoxy)-4-pyridazinyl 1-propanesulfonate], the melting point was 72 to 73 °C.
